# Results as given in patent publication US11566007B2, “Ras inhibitors” (Revolution Medicines, Inc., priority 2019, dated 2023).
# Columns and labels:
# [1] = tested on: NCI-H358 cells (K-Ras G12C); assay: Potency assay: pERK in NCI-H358 cells; assay type: cell-based, human; conditions: Homo sapiens, NCI-H358; H358 KRAS G12C; read-out: pERK EC50
# Outline: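 4 h cpd, 37 °C; 10-pt 3-fold series, 10 mM DMSO top stock, duplicates. Readout pERK: AlphaLISA SureFire Ultra or In-Cell Western (IR-800CW secondary, DRAQ5 DNA stain). IC50, 4-PL fit vs log conc.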
# NCI-H358 (K-Ras G12C) = assay: CellTiter-Glo cell viability assay, NCI-H358; assay type: cell-based, human; conditions: Homo sapiens, NCI-H358, 120 h, NCI-H358, 5-day treatment; class symbols; read-out: Additional H358 Cell Viability assay data (K-Ras G12C, IC50)
# Outline: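 Viability measured by CellTiter-Glo luminescence on day 5 following direct addition of compound to plated cells. Values expressed as percent of mean DMSO signal; curves fitted with a four-parameter logistic model.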
# KRAS G12S = KRAS G12S (Homo sapiens (Human), UniProt P01116+P62937, G12S); assay: Ras-Raf (BRAF RBD) disruption / FRET / MOA assay, KRAS G12S; assay type: biochemical; conditions: Ras-Raf disruption/FRET/MOA assay; class symbols; read-out: KRAS G12S FRET data IC50
# Chain of KRAS G12S (P01116-2 other isoform, or with tags, fused parts or gaps G12S): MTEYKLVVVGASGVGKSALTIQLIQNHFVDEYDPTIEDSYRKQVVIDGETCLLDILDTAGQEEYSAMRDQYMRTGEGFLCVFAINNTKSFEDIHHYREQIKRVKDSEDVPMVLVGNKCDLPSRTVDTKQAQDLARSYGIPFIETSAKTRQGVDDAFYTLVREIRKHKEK
# Chain of KRAS G12S (P62937 whole entry): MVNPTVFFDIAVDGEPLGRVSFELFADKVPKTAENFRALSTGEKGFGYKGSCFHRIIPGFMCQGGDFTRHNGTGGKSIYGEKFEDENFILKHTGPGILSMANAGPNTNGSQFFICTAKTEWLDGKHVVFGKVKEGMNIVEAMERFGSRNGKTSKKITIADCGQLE
# Outline: (§1)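 Ternary complex formation (Ras–compound–cyclophilin A) displacing BRAF RBD, monitored by TR-FRET. Three hours at 25° C with compound (top 30 μM final), then 1.5 h with the labelled antibodies. Lower ratio than DMSO indicates disruption; IC50 reported.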
# KRAS G12D = KRAS G12D (Homo sapiens (Human), UniProt P01116+P62937, G12D); assay: Ras-Raf (BRAF RBD) disruption / FRET / MOA assay, KRAS G12D; assay type: biochemical; conditions: Ras-Raf disruption/FRET/MOA assay; class symbols; read-out: KRAS G12D FRET data IC50
# Chain of KRAS G12D (P01116-2 other isoform, or with tags, fused parts or gaps G12D): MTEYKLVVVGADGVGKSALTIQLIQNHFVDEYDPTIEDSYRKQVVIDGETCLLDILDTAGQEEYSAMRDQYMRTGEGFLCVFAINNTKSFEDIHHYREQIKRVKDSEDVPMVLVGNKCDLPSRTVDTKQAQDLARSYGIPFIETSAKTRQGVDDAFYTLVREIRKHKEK
# Chain of KRAS G12D (P62937 whole entry): as the sequence (P62937 whole entry) above
# Outline: as §1
# KRAS WT = KRAS WT (Homo sapiens (Human), UniProt P01116+P62937); assay: Ras-Raf (BRAF RBD) disruption / FRET / MOA assay, KRAS WT; assay type: biochemical; conditions: read-out: IC50* KRAS WT FRET data
# Chain of KRAS WT (P01116-2 other isoform, or with tags, fused parts or gaps): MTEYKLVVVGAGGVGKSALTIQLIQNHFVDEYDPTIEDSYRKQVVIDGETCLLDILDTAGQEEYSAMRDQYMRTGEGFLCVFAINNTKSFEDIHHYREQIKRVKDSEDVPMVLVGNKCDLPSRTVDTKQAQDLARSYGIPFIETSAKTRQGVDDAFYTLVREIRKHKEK
# Chain of KRAS WT (P62937 whole entry): as the sequence (P62937 whole entry) above
# Outline: as §1
SMILES,EC50 [1],IC50 (NCI-H358 (K-Ras G12C)),IC50 (KRAS G12S),IC50 (KRAS G12D),IC50 (KRAS WT)
"CCn1c(-c2cccnc2[C@H](C)OC)c2c3cc(ccc31)-c1cccc(c1)C[C@H](NC(=O)[C@H](C(C)C)N1CO[C@@]3(CCN(C(=O)C#CC(C)(C)N4CCC4)C3)C1=O)C(=O)N1CCC[C@H](N1)C(=O)OCC(C)(C)C2 (atropisomer, axis not shown) [Example A733]",< 5000 nM,< 10 nM,1000 to 10000 nM,> 10000 nM,> 10000 nM
C=CC(=O)C1CC[C@H](C(=O)N(C)[C@H](C(=O)N[C@H]2Cc3cc(O)cc(c3)-c3ccc4c(c3)c(c(-c3cnn(C)c3[C@H](C)OC)n4CC)CC(C)(C)COC(=O)[C@@H]3CCCN(N3)C2=O)C(C)C)C1 (stereo partly drawn) [Example A166],< 5000 nM,< 10 nM,100 to 1000 nM,1000 to 10000 nM,100 to 1000 nM
C=CC(=O)N1CC[C@H](C(=O)N(C)[C@H](C(=O)N[C@H]2Cc3nc(ns3)-c3ccc4c(c3)c(c(-c3cncnc3)n4CC)CC(C)(C)COC(=O)[C@@H]3CCCN(N3)C2=O)C(C)C)C1 [Example A285],< 5000 nM,> 1000 nM,> 10000 nM,> 10000 nM,> 10000 nM
C=CC(=O)N1CC[C@H](C(=O)N(C)[C@H](C(=O)N[C@H]2Cc3cc(O)cc(c3)-c3ccc4c(c3)c(c(-c3cnn5c3[C@@H](OC)CCC5)n4CC)CC(C)(C)COC(=O)[C@@H]3CCCN(N3)C2=O)C(C)C)C1 [Example A300],< 5000 nM,< 10 nM,10 to 100 nM,100 to 1000 nM,10 to 100 nM
"CCn1c(-c2cccnc2[C@H](C)OC)c2c3cc(ccc31)-c1cccc(c1)C[C@H](NC(=O)C(COC1CN(C(=O)C#CC(C)(C)N(C)C)C1)C(C)C)C(=O)N1CCC[C@H](N1)C(=O)OCC(C)(C)C2 (stereo partly drawn) [Example A316, (2R)-2-(((1-(4-(dimethylamino)-4-methylpent-2-ynoyl)azetidin-3-yl)oxy)methyl)-N-((6^3S,4S)-1^1-ethyl-1^2-(2-((S)-1-methoxyethyl)pyridin-3-yl)-10,10-dimethyl-5,7-dioxo-6^1,6^2,6^3,6^4,6^5,6^6-hexahydro-1^1H-8-oxa-1(5,3)-indola-6(1,3)-pyridazina-2(1,3)-benzenacycloundecaphane-4-yl)-3-methylbutanamide]",< 5000 nM,< 10 nM,> 10000 nM,> 10000 nM,> 10000 nM

# Further lines, results first:
EC50 [1],IC50 (NCI-H358 (K-Ras G12C)),IC50 (KRAS G12S),IC50 (KRAS G12D),IC50 (KRAS WT),SMILES
< 5000 nM,< 10 nM,10 to 100 nM,100 to 1000 nM,10 to 100 nM,"C=CC(=O)N1CCN(C(=O)N(C)[C@H](C(=O)N[C@H]2Cc3nc(cs3)-c3ccc4c(c3)c(c(-c3cccnc3[C@H](C)OC)n4CC)CC(C)(C)COC(=O)[C@@H]3CCCN(N3)C2=O)C(C)C)[C@@H]2C[C@@H]21 (atropisomer, axis not shown) [Example A736]"
< 5000 nM,< 10 nM,10 to 100 nM,100 to 1000 nM,100 to 1000 nM,C=CC(=O)N1CC[C@H](C(=O)N(C)[C@H](C(=O)N[C@H]2Cc3cc(O)cc(c3)-c3ccc4c(c3)c(c(-c3cncc5c3[C@@H](OC)CC5)n4CC)CC(C)(C)COC(=O)[C@@H]3CCCN(N3)C2=O)C(C)C)C1 [Example A275]
< 5000 nM,< 10 nM,100 to 1000 nM,1000 to 10000 nM,100 to 1000 nM,C=CC(=O)N1CCC(C(=O)N(C)[C@H](C(=O)N[C@H]2Cc3cc(CF)cc(c3)-c3ccc4c(c3)c(c(-c3cccnc3[C@H](C)OC)n4CC(F)(F)F)CC(C)(C)COC(=O)[C@@H]3CCCN(N3)C2=O)C(C)C)C1 (stereo partly drawn) [Example A659]
< 5000 nM,< 10 nM,1000 to 10000 nM,> 10000 nM,1000 to 10000 nM,CCn1c(-c2cccnc2[C@H](C)OC)c2c3cc(ccc31)N1CCO[C@@H](C[C@H](NC(=O)[C@H](C(C)C)N(C)C(=O)[C@@]3(F)CCC(C(=O)C#CC(C)(C)N4CCC4)C3)C(=O)N3CCC[C@H](N3)C(=O)OCC(C)(C)C2)C1 (stereo partly drawn) [Example A726]
